The text below walks through data of patent US20260215432A1, “ANTIMICROBIAL CONJUGATED OLIGOELECTROLYTES AND METHODS THEREOF” (National University of Singapore, priority 2023, published 2026).

Structures are written as SMILES.

A word on the MIC: it is the lowest concentration found to suppress growth. Read a low MIC as a more susceptible organism.

For test [1], the system named is E. coli. K12 (ATCC 10798). Briefly: MIC, broth microdilution in CA-MHB. The class given is cell-based. A general note: Dilution methods test growth across graded concentrations, often in twofold steps.
Test [2] has as its system E. facium (ATCC 19434). Briefly: MIC, broth microdilution in CA-MHB. The class given is cell-based. The conditions noted are these: CA-MHB.
Test [3] has as its system E. faecalis OG1RF (ATCC 47077). As to the kind of experiment: MIC, broth microdilution in CA-MHB. The class given is cell-based.
For test [4], the system named is K. pneumoniae (carbapenem-resistant Enterobacterales) (ATCC BAA1705). As to the kind of experiment: MIC, broth microdilution in CA-MHB. The class given is cell-based.
Test [5] has as its system P. aeruginosa (ATCC47085). As to the kind of experiment: MIC, broth microdilution in CA-MHB. The class given is cell-based.
Test [6] has as its system MRSA. As to the kind of experiment: Membrane depolarization assay (DiSC3(5)). The class given is cell-based, S. aureus. As to conditions: DiSC3(5)-encapsulated MRSA cells. An excerpt:
The interactions of DM6P with various bacterial cell membranes were first investigated through spectrometric methods. In normal cells, compartmentalization of the intracellular space by the lipid bilayer enables the maintenance of a transmembrane potential, which is necessary for regular cell division and energy production. The membrane-potential sensitive dye 3,3′-dipropylthiadicarbocyanine iodide (DiSC3(5)) accumulates within the membranes of healthy, polarized cells where its fluorescence is self-quenched. Depolarization of the membrane necessary to maintain this gradient causes the release of this dye, resulting in an increase in fluorescence intensity. […]
Determination of the extent of depolarization of bacterial cell membranes was carried out using a voltage sensitive dye DiSC3(5) (ThermoFisher, USA). The dye is able to accumulate within polarized healthy cell membranes with resulting quenched fluorescence. When the membrane is depolarized, subsequent ion permeabilization releases the dye from the membrane and gives rise to enhanced fluorescence intensity.^3 The assay was performed according to a modified protocol reported previously. […] The plate was incubated in the dark for 30 minutes, with the signal measured every 5 minutes until a stable baseline was observed. COEs were then added at varying concentrations and the fluorescence intensity was measured over time at 37° C. […]

The test system of test [7] is MRSA. As to the kind of experiment: Propidium iodide influx assay. The class given is cell-based, S. aureus. The conditions noted are these: 0.5 to 2 μg mL^−1 (half to twice the MIC). An excerpt:
Another hallmark of cytoplasmic membrane damage is an enhanced permeability towards small molecules. Propidium iodide (PI) is a membrane-impermeant organic dye that can be used to study potential mechanisms of action of antibiotics due to its enhanced fluorescence intensity upon binding to intracellular DNA. Treatment with molecules that cause membrane perturbations enable rapid influx of the dye, resulting in an increase in fluorescence emission that can be monitored over time. […] This difference hints at two plausible mechanisms of action that are concentration dependent. Similar observations have been made for tobramycin, where a protein inhibition mode of action at lower concentrations (<4 μg mL^−1) is supplanted by disruption of the outer membrane at higher concentrations (8 μg mL^−1).
The assay was performed according to a modified reported protocol.^4 Briefly, the corresponding bacteria was collected from mid-log cultures by centrifugation (7000 rpm, 10 minutes) and washed thrice with PBS. The pellet was then resuspended in the same buffer and diluted to an optical density of 2 by extrapolation. […] Fluorescence intensity was measured over time in a plate reader with an excitation wavelength of 525 nm and emission wavelength of 620 nm. Fluorescence signals were measured every 30 seconds and carried out in triplicate.

Test [8] concerns MRSA. As to the kind of experiment: S. aureus murine wound infection model. The class given is in vivo, mice. The conditions noted are these: 0.05 mg/kg, MRSA-inoculated mouse wound, 24 hours. How it is done:
To probe the potential of TPP-COEs as viable therapeutics, we assessed the efficacy of DM6P to treat bacterial infections in vivo. An S. aureus murine wound infection model was used due to prevalent clinical concerns associated with S. aureus skin and soft tissue infections (SSTIs). […] Relative to current clinical dosages of 4-6 mg/kg for daptomycin, the low concentrations required to achieve such activity in vivo and absence of bacterial regrowth after 24 hours underscores the potential for further developing TPP-COEs with improved activity and safety profiles.
Animal experiments were approved by the Institutional Animal Care and Use Committee (IACUC), National University of Singapore (R20-1178) and carried out in line with procedures in the Guide for the Care and Use of Laboratory Animals (National Institutes of Health). C57BL6 mice (female, 18-20 g) were anaesthetized by ketamine and the hair at the back were shaved and removed. A 6 mm-diameter excisional wound was created on the back using a biopsy punch. Log phase MRSA (in 5 μl PBS) were inoculated onto the wound. A 3M tegaderm were used to cover the wound site from contamination. […] Significant levels were evaluated by a one-way ANOVA followed by a multiple comparison analysis of variance by a one-way Tukey test (Graphpad PRISM).

Take `COc1cc(/C=C/c2ccc(OCCCCCC[P+](c3ccccc3)(c3ccccc3)c3ccccc3)c(OC)c2)ccc1OCCCCCC[P+](c1ccccc1)(c1ccccc1)c1ccccc1.[I-].[I-]` [DM6P]: the “MIC EC” value in test [1] (CA-MHB) amounted to 2 µg/mL. Moreover, the MIC is 2 µg/mL in test [1] (strain EC, Table 5); 1 µg/mL in test [3] (strain EF, Table 5); 8 µg/mL in test [4] (strain CRKP, Table 5); 4 µg/mL in test [5] (strain PA, Table 5). In test [2], the “MIC FAC” value stood at 1 µg/mL. Moreover, in test [3] (CA-MHB), the “MIC FAE” value came out at 1 µg/mL. Also, the “MIC KP” value in test [4] (CA-MHB) was determined as 8 µg/mL. In addition, in test [5] (CA-MHB), the “MIC PA” value is 4 µg/mL. Moreover, the “depolarization of the bacterial membrane” value in test [6] is listed as “dose-dependent depolarization”. The PI influx result in test [7] is listed as “PI influx was observed at 2×MIC”. Also, in test [8], the “reduction in bacterial load compared to the saline-treated group” value is 3.8 log fold.
